Reference: patent US10669272B2, “Substituted naphthyridinone compounds useful as T cell activators” (BRISTOL-MYERS SQUIBB COMPANY, priority 2018, dated 2020)
Like-named read-outs stand apart in the source and are kept apart here.

Key:
[1] = target: T1, human DGKα (Homo sapiens, UniProt P23743); assay: DGKα LIPGLO assay (extruded liposome substrate), in vitro DGK inhibition; type: biochemical; conditions: read-out: DGKa LIPGLO IC50
T1 construct: TVMV protease cleavage site (C); Hexa-His (C); made in house; host or cells: Sf9 insect cells (baculovirus, Bac-to-Bac)
T1 sequence (P23743 with tags, fused parts or gaps): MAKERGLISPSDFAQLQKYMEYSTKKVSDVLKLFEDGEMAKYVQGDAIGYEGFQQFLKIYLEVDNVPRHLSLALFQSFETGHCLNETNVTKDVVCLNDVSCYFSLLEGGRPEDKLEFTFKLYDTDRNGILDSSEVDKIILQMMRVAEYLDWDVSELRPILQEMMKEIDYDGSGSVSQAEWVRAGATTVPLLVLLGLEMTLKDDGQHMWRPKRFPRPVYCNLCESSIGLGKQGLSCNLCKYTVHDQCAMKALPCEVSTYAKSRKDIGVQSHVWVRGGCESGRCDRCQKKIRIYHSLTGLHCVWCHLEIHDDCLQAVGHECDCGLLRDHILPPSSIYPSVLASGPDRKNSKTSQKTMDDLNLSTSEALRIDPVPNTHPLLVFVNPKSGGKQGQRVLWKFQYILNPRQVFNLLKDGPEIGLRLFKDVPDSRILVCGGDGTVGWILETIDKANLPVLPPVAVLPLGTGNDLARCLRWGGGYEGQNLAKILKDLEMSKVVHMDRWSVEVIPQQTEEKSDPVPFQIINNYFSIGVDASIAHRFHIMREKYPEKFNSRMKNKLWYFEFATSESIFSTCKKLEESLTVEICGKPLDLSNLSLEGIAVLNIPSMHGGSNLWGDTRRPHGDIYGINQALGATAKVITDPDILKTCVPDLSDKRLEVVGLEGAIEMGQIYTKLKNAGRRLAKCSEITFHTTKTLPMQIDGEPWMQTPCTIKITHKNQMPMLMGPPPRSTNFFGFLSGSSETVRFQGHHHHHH

[2] = target: T2, human DGKζ (Homo sapiens, UniProt Q13574); assay: DGKζ LIPGLO assay (extruded liposome substrate), in vitro DGK inhibition; type: biochemical; conditions: read-out: DGKz LIPGLO IC50
T2 construct: TVMV protease cleavage site (C); Hexa-His (C); made in house; host or cells: Sf9 insect cells (baculovirus, Bac-to-Bac)
T2 sequence (Q13574 with tags, fused parts or gaps isoform Q13574-4): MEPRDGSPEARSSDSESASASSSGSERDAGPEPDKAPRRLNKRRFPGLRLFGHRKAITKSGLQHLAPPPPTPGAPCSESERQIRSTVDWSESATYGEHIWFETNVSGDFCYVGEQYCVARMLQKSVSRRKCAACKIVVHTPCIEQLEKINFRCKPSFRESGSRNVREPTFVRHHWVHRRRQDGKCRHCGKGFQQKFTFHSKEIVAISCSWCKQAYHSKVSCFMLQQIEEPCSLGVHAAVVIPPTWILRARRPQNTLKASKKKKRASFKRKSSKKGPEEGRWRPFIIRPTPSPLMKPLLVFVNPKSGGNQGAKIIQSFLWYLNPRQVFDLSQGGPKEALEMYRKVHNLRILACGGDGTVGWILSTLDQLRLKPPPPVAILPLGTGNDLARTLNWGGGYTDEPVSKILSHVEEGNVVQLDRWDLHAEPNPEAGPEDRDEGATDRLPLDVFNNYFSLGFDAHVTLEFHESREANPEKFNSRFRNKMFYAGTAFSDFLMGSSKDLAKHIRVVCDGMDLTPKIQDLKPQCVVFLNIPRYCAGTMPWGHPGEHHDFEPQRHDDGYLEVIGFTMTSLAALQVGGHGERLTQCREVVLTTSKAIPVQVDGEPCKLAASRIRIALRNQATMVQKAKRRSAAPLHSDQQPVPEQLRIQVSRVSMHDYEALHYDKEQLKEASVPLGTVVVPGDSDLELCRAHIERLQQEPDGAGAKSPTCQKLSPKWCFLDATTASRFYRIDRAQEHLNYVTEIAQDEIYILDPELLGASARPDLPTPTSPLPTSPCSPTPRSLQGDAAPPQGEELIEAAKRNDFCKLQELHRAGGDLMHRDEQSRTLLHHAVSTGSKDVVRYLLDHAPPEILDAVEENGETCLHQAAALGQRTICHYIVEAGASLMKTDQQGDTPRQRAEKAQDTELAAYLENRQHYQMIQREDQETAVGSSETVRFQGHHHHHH

[3] = system: Human venous whole blood; assay: Human whole blood IFN-γ assay; type: cell-based; conditions: human whole blood, read-out: INFg Whole Blood Normalized Agonist EC50;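 further: blood from healthy donors exposed to compound for 1 h before stimulation with anti-CD3 and anti-CD28 at 1 µg/mL each, IFN-γ quantified in supernatant by AlphaLISA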
Protocol: Human Whole Blood IFN-γ Assay
Human venous whole blood (22.5 μL per well), obtained from healthy donors, was pre-treated with compounds for one hour at 37° C. in a humidified 95% air/5% CO2 incubator. The blood was stimulated with 2.5 μL anti-human CD3 and anti-CD28 mAb at a final concentration of 1 μg/mL each for 24 hours at 37° C. IFN-γ in the supernatants was measured using AlphLISA kit (Cat # AL217).

[4] = anti-CD3 plus anti-CD28, 24 hours, 3 μM reference compound = 100% activation
[5] = Homo sapiens, 24 h, normalized to 3 μM reference compound with anti-CD3 plus anti-CD28 as 100% activation
[6] = normalized to 3 μM reference compound with anti-CD3 plus anti-CD28 as 100% activation
[7] = Homo sapiens, 24 h, anti-CD3 plus anti-CD28, 24 hours, 3 μM reference compound = 100% activation

## Cc1ccc(C(c2ncccc2F)N2CCN(c3c(C#N)c(=O)n(C)c4ccc(C#N)nc34)C[C@H]2C)cc1 (single isomer, unassigned) [Example 892]
[1]; DGKα liposome (LIPGLO) assay
  IC50: 1800 nM
[2]; DGKζ liposome (LIPGLO) assay
  IC50: 1300 nM
[3]; [4]
  EC50: 5000 nM

## COCCOC[C@@H]1CN(c2cc(=O)n(C)c3ccc(C#N)nc23)[C@@H](C)CN1C(C)c1ccc(OC(F)(F)F)cc1 (single isomer, unassigned) [Example 1406]
[1]; liposome (LIPGLO) assay
  IC50: 2700 nM
[2]; liposome (LIPGLO) assay
  IC50: 950 nM
[3]; [5]
  EC50: 12000 nM

## CC[C@H]1CN(C(C)c2ccc(C3CC3)cc2)[C@H](CC)CN1c1cc(=O)n(C)c2ccc(C#N)nc12 (single isomer, unassigned) [Example 1355]
[1]; liposome (LIPGLO) assay
  IC50: 62 nM
[2]; liposome (LIPGLO) assay
  IC50: 33 nM
[3]; [6]
  EC50: 28 nM

## CC[C@H]1CN(C(c2ccc(F)cc2)c2cccc(C(F)(F)F)n2)[C@H](CC)CN1c1cc(=O)n(C)c2ccc(C#N)nc12 (single isomer, unassigned) [Example 1046]
[1]; liposome (LIPGLO) assay
  IC50: 90 nM
[2]; liposome (LIPGLO) assay
  IC50: 54 nM
[3]; [6]
  EC50: 140 nM

## CC[C@@H]1CN(c2cc(=O)n(C)c3ccc(C#N)nc23)[C@@H](C)CN1C(C)c1ccc(C#N)cc1 (single isomer, unassigned) [Example 1346]
[1]; liposome (LIPGLO) assay
  IC50: 52 nM
[2]; liposome (LIPGLO) assay
  IC50: 450 nM
[3]; [6]
  EC50: 6000 nM

## C[C@@H]1CN(c2c(C#N)c(=O)n(C)c3ccc(C#N)nc23)CCN1C(c1ccc(F)cc1)c1ccc(C(F)(F)F)cc1 (single isomer, unassigned) [Example 910]
[1]; DGKα liposome (LIPGLO) assay
  IC50: 3000 nM
[2]; DGKζ liposome (LIPGLO) assay
  IC50: 11000 nM
[3]; [4]
  EC50: 20000 nM

## C[C@@H]1CN(c2c(C#N)c(=O)n(C)c3ccc(C#N)nc23)[C@@H](C)CN1C(c1ccc(Cl)cc1)c1ncccc1F (single isomer, unassigned) [Example 822]
[1]; DGKα liposome (LIPGLO) assay
  IC50: 2700 nM
[2]; DGKζ liposome (LIPGLO) assay
  IC50: 13000 nM
[3]; [4]
  EC50: 3200 nM

## C[C@@H]1CN(c2cc(=O)n(C)c3ccc(C#N)nc23)[C@@H](C)CN1C(c1ccc(F)cc1)c1cnn(C2CC2)c1 (single isomer, unassigned) [Example 726]
[1]; DGKα liposome (LIPGLO) assay
  IC50: 1900 nM
[2]; DGKζ liposome (LIPGLO) assay
  IC50: 59 nM
[3]; [4]
  EC50: 800 nM

## Cc1oncc1CN1C[C@H](C)N(c2cc(=O)n(C)c3ccc(C#N)nc23)C[C@H]1C [Example 1431]
[1]; liposome (LIPGLO) assay
  IC50: 59000 nM
[2]; liposome (LIPGLO) assay
  IC50: 12000 nM
[3]; [5]
  EC50: 13000 nM

## CC[C@@H]1CN(c2cc(=O)n(C)c3ccc(C#N)nc23)[C@@H](C)CN1C(C)c1ccc(F)cc1 (single isomer, unassigned) [Example 1084]
[1]; liposome (LIPGLO) assay
  IC50: 1700 nM
[2]; liposome (LIPGLO) assay
  IC50: 5000 nM
[3]; [6]
  EC50: 2600 nM

## C[C@@H]1CN(c2cc(=O)n(C)c3ccc(C#N)nc23)[C@@H](C)CN1Cc1cccc2c1OCCN2 [Example 634]
[1]; liposome (LIPGLO) assay
  IC50: 4300 nM
[2]; liposome (LIPGLO) assay
  IC50: 9000 nM
[3]; [5]
  EC50: 2900 nM

## C[C@@H]1CN(c2c(C#N)c(=O)n(C)c3ccc(C#N)nc23)CCN1C(c1ccc(F)cc1)c1ncccc1F (single isomer, unassigned) [Example 893]
[1]; DGKα liposome (LIPGLO) assay
  IC50: 920 nM
[2]; DGKζ liposome (LIPGLO) assay
  IC50: 720 nM
[3]; [4]
  EC50: 1700 nM

## CC(c1csc(C(F)(F)F)n1)N1C[C@H](C)N(c2cc(=O)n(C)c3ccc(C#N)nc23)C[C@H]1C (single isomer, unassigned) [Example 1273]
[1]; liposome (LIPGLO) assay
  IC50: 180 nM
[2]; liposome (LIPGLO) assay
  IC50: 360 nM
[3]; [5]
  EC50: 1700 nM

## CC[C@H]1CN(C(C)c2ccc(C(F)(F)F)cc2)[C@H](CC)CN1c1cc(=O)n(C)c2ccc(C#N)nc12 (single isomer, unassigned) [Example 1051]
[1]; liposome (LIPGLO) assay
  IC50: 270 nM
[2]; liposome (LIPGLO) assay
  IC50: 210 nM
[3]; [6]
  EC50: 42 nM

## C[C@@H]1CN(c2cc(=O)n(C)c3ccc(C#N)nc23)[C@@H](C)CN1C(c1ccc(F)cc1)c1cncc(F)c1 (single isomer, unassigned) [Example 415]
[1]; liposome (LIPGLO) assay
  IC50: 35000 nM
[2]; liposome (LIPGLO) assay
  IC50: 19000 nM
[3]; [5]
  EC50: 16000 nM

## CC[C@H]1CN(C(C)c2ccc(C(F)(F)F)cc2F)[C@H](CC)CN1c1cc(=O)n(C)c2ccc(C#N)nc12 (single isomer, unassigned) [Example 1365]
[1]; liposome (LIPGLO) assay
  IC50: 480 nM
[2]; liposome (LIPGLO) assay
  IC50: 480 nM
[3]; [6]
  EC50: 2200 nM

## CC(c1ccccc1F)N1C[C@H](C)N(c2c(C#N)c(=O)n(C)c3ccc(C#N)nc23)C[C@H]1C (single isomer, unassigned) [Example 797]
[1]; DGKα liposome (LIPGLO) assay
  IC50: 1800 nM
[2]; DGKζ liposome (LIPGLO) assay
  IC50: 8600 nM
[3]; [4]
  EC50: 1800 nM

## CC[C@H]1CN(C(c2ccc(F)cc2)c2ccc(C(F)(F)F)cn2)[C@H](C)CN1c1cc(=O)n(C)c2ccc(C#N)nc12 (single isomer, unassigned) [Example 1131]
[1]; liposome (LIPGLO) assay
  IC50: 73 nM
[2]; liposome (LIPGLO) assay
  IC50: 180 nM
[3]; [6]
  EC50: 430 nM

## C[C@@H]1CN(c2cc(=O)n(C)c3ccc(C#N)nc23)[C@@H](C)CN1C(c1ccccn1)c1ccc(F)cc1F (single isomer, unassigned) [Example 683]
[1]; liposome (LIPGLO) assay
  IC50: 470 nM
[2]; liposome (LIPGLO) assay
  IC50: 23000 nM
[3]; [6]
  EC50: 1500 nM

## C[C@@H]1CN(c2c(C#N)c(=O)n(C)c3ccc(C#N)nc23)[C@@H](C)CN1C(c1cccc(F)c1)c1ccc(C(F)(F)F)cn1 (single isomer, unassigned) [Example 840]
[1]; DGKα liposome (LIPGLO) assay
  IC50: 22000 nM
[2]; DGKζ liposome (LIPGLO) assay
  IC50: 2800 nM
[3]; [4]
  EC50: 810 nM

## Cc1ccnc(C(c2ccc(F)cc2)N2C[C@H](C)N(c3cc(=O)n(C)c4ccc(C#N)nc34)C[C@H]2C)c1 (single isomer, unassigned) [Example 456]
[1]; liposome (LIPGLO) assay
  IC50: 230 nM
[2]; liposome (LIPGLO) assay
  IC50: 1000 nM
[3]; [6]
  EC50: 1100 nM

## CC[C@H]1CN(C(C)c2ccc(F)cc2F)[C@H](C)CN1c1cc(=O)n(C)c2ccc(C#N)nc12 (single isomer, unassigned) [Example 1138]
[1]; liposome (LIPGLO) assay
  IC50: 980 nM
[2]; liposome (LIPGLO) assay
  IC50: 1400 nM
[3]; [6]
  EC50: 3700 nM

## CC[C@@H]1CN(c2cc(=O)n(C)c3ccc(C#N)nc23)[C@@H](C)CN1C(C)c1ccc(C(F)(F)F)cc1 (single isomer, unassigned) [Example 1093]
[1]; liposome (LIPGLO) assay
  IC50: 250 nM
[2]; liposome (LIPGLO) assay
  IC50: 180 nM
[3]; [5]
  EC50: 130 nM

## CC(c1ccc(OC(C)(C)C)cc1)N1C[C@H](C)N(c2cc(=O)n(C)c3ccc(C#N)nc23)C[C@H]1C (single isomer, unassigned) [Example 1442]
[1]; liposome (LIPGLO) assay
  IC50: 65 nM
[2]; liposome (LIPGLO) assay
  IC50: 1000 nM
[3]; [6]
  EC50: 530 nM

## CC[C@@H]1CN(c2cc(=O)n(C)c3ccc(C#N)nc23)[C@@H](C)CN1C(c1cccc(F)c1)c1ccc(F)cn1 (single isomer, unassigned) [Example 1109]
[1]; liposome (LIPGLO) assay
  IC50: 730 nM
[2]; liposome (LIPGLO) assay
  IC50: 470 nM
[3]; [5]
  EC50: 920 nM

## CC[C@H]1CN(C(c2ccc(F)cc2)c2ccc(C#N)cc2)[C@H](COC)CN1c1cc(=O)n(C)c2ccc(C#N)nc12 (single isomer, unassigned) [Example 1171]
[1]; liposome (LIPGLO) assay
  IC50: 1500 nM
[2]; liposome (LIPGLO) assay
  IC50: 350 nM
[3]; [6]
  EC50: 170 nM

## C[C@@H]1CN(c2c(C#N)c(=O)n(C)c3ccc(C#N)nc23)CCN1C(c1ccc(Cl)cc1)c1ccc(Cl)cn1 (stereo partly drawn) [Example 930]
[1]; DGKα liposome (LIPGLO) assay
  IC50: 640 nM
[2]; DGKζ liposome (LIPGLO) assay
  IC50: 1300 nM
[3]; [7]
  EC50: 1300 nM

## CC[C@@H]1CN(c2cc(=O)n(C)c3ccc(C#N)nc23)[C@@H](C)CN1Cc1ccc(F)cc1 [Example 1079]
[1]; liposome (LIPGLO) assay
  IC50: 28 nM
[2]; liposome (LIPGLO) assay
  IC50: 89 nM
[3]; [5]
  EC50: 650 nM

## CC[C@@H]1CN(c2cc(=O)n(C)c3ccc(C#N)nc23)[C@@H](C)CN1C(c1ccc(Cl)cc1)c1ccc(F)cn1 (stereo partly drawn) [Example 1111]
[1]; liposome (LIPGLO) assay
  IC50: 200 nM
[2]; liposome (LIPGLO) assay
  IC50: 78 nM
[3]; [6]
  EC50: 310 nM

## CCC(c1ccc(C2CC2)cc1)N1C[C@H](C)N(c2cc(=O)n(C)c3ccc(C#N)nc23)C[C@H]1C (single isomer, unassigned) [Example 1221]
[1]; liposome (LIPGLO) assay
  IC50: 850 nM
[2]; liposome (LIPGLO) assay
  IC50: 2700 nM
[3]; [6]
  EC50: 4200 nM

## CC[C@@H]1CN(c2c(F)c(=O)n(C)c3ccc(C#N)nc23)[C@@H](C)CN1C(C)c1ccc(OC(F)(F)F)cc1 (single isomer, unassigned) [Example 1328]
[1]; liposome (LIPGLO) assay
  IC50: 4900 nM
[2]; liposome (LIPGLO) assay
  IC50: 1500 nM
[3]; [5]
  EC50: 3400 nM

## CC1CN(C(c2ccc(F)cc2)c2nc(C(C)(C)C)no2)C(C)CN1c1c(C#N)c(=O)n(C)c2ccc(C#N)nc12 (single isomer, unassigned) [Example 862]
[1]; DGKα liposome (LIPGLO) assay
  IC50: 290 nM
[2]; DGKζ liposome (LIPGLO) assay
  IC50: 600 nM
[3]; [7]
  EC50: 1200 nM
